Our source for the Emax and EC50 values is patent US20260035364A1, “BICYCLIC TETRAHYDROTHIAZEPINE DERIVATIVES” (Hoffmann-La Roche Inc., priority 2022, published 2026).

In the assay the test system is primary human T-cells. Briefly: IL2 secretion measurements in CD3-stimulated T-cells. Format: cell-based. The following applies: Homo sapiens, T-cell, 24 h, CD3 condition; for Emax: IL2 after 24 hours, 20 μM reference compound A1 = 100%, read-out: Emax IL2 (% activation); for EC50: IL2 secretion after 24 hours, read-out: Tcell IL2 CD3 EC50. The protocol:
As readouts for T-cell activation, IL2 secretion after 24 hours and proliferation after 5 days was measured. Increases in IL2 secretion and proliferation upon compound treatment were assessed as the % of the maximum of reference compound A1. WO 2016/139181 discloses reference compound A1 as example 70. As a counter screen and to make sure that no unwanted TCR-independent activation was triggered, PBS conditions were run for all compounds.
Expanded primary human T-cells were thawed and cultured in RPMI 1640 (Gibco, #61870-010)+5% human serum (HS, Sigma, #H3667)+1 mM Sodium Pyruvate (Gibco, #11360-039)+50 μM 2-mercaptoethanol (Gibco, #31350-010) and 1× Pen-Strep (Life Technologies, #15140122) medium at density of 2 Mio/ml for 3 hours in 5% CO2, 37° C. and 95% humidity. For coating of plates, […] or PBS++ with CD3 antibody (concentration depending on donor and determined by CD3 titrations) was added 100 μl/well to Poly-D Lysine coated 96-well plates. Plates were sealed and incubated at room temperature for 3 hours on a table-top rocking platform. After incubation, plates were washed once with PBS−− and filled with 40 μl/well culture medium only. Compounds were then added (see next section) to medium only plates. After 3 hours of culturing the T-cells, cells were filtered through a cell strainer (Miltenyi Biotech, #130-041-407), counted again and concentration was adjusted to 1.25 Mio/ml.
Cells were then seeded 80 μl/well to the 40 μl/well including dispensed compounds according to plate layout. By adding cells, compounds were further diluted 1:3, and resulting in 100k cells/120 µl/well. After 24 hours 40 μl of supernatant was collected carefully from the top while not disturbing the cells and transferred into a round bottom 96 well plate. Collected and frozen supernatant was used for detection of IL2 using the IL-2 Human ProQuantum Immunoassay Kit (Invitrogen) or using the Human IL-2 ELISA Kit (Thermo Fisher).
Compound Treatment Compounds were added in a 5 or 6 pt dose response with the Tecan D300e Digital Dispenser, all conditions 3 times more concentrated than the end-concentration, since cells are added afterwards (80p1 cells to 40p1 prepared medium with treatment). The DR was starting at 20 μM or 10 μM final top concentration and a dilution factor of 3.333. The positive control was the reference compound A1 that was added in a dose response as well, additionally to 3 wells of only 20 μM representing the positive stimulator control. All wells were normalized with DMSO to a final concentration of 0.6% (0.2% end-concentration).
The immunoassay is done following the manufacturer's manual (Invitrogen, #A35603).
Additional information: For the immunoassay, MicroAmp™ EnduraPlate™ Optical 384-Well plates are used. Frozen supernatant is thawed and centrifuged for 5 minutes at 1000×g, both steps at 4° C. After centrifugation, required sample amount is taken from the top, and in a separate LightCycler V-bottom plate (working plate) diluted with assay dilution buffer, dilution factor depending on the PBS or CD3 condition but at least 1:3. IL-2 standard and blanks are prepared in the same V-bottom plate, standard with a range of 0.0128-5000 pg/ml (extended version). After preparation, 5 μl of sample dilutions or standard/blanks are transferred to the optical 384-well plate (assay plate) and the 10 μl reaction protocol is being followed. For measurement, the QuantStudio 12K Flex system is used. Raw data is extracted and IL-2 concentrations are calculated with the Thermo Fisher online app (apps.thermofisher.com/apps/proquantum).
ELISA is done following the manufacturer's manual (Thermo Fisher Scientific, #88-7025-88). Additional information: For the ELISA Nunc MaxiSorp 96 well plates are used. Frozen supernatant is thawed and centrifuged for 5 minutes at 1000×g, both steps at 4° C. […]

As to `COc1ccc(-c2ccc(CN3C(=O)[C@@H](N)CS(=O)(=O)c4ccc(-c5nnc(C(C)(C)S(C)(=O)=O)o5)cc43)cc2)cc1` [Example 21, (3R)-3-amino-5-[[4-(4-methoxyphenyl)phenyl]methyl]-7-[5-(1-methyl-1-methylsulfonyl-ethyl)-1,3,4-oxadiazol-2-yl]-1,1-dioxo-2,3-dihydro-1λ6,5-benzothiazepin-4-one], the Emax is 89% and the EC50 turned out to be 1.24 µM.
In the case of `COc1cccc(-c2ccc(CN3C(=O)[C@@H](N)CS(=O)(=O)c4ccc(-c5nnc(C(C)(C)S(C)(=O)=O)o5)cc43)cc2)c1` [Example 22, (3R)-3-amino-5-[[4-(3-methoxyphenyl)phenyl]methyl]-7-[5-(1-methyl-1-methylsulfonyl-ethyl)-1,3,4-oxadiazol-2-yl]-1,1-dioxo-2,3-dihydro-1λ6,5-benzothiazepin-4-one], the Emax amounted to 63% and the EC50 stood at 2.21 µM.
As for `CC(C)(c1nnc(-c2ccc3c(c2)N(Cc2ccc(OCCC(F)(F)F)cc2)C(=O)[C@@H](N)CS3(=O)=O)o1)S(C)(=O)=O` [Example 23, (3R)-3-amino-7-[5-(1-methyl-1-methylsulfonyl-ethyl)-1,3,4-oxadiazol-2-yl]-1,1-dioxo-5-[[4-(3,3,3-trifluoropropoxy)phenyl]methyl]-2,3-dihydro-1λ6,5-benzothiazepin-4-one], the Emax was 62% and the EC50 was found to be 7.33 µM.
For the compound `CC(C)(c1nnc(-c2cc3c(cc2F)S(=O)(=O)C[C@H](N)C(=O)N3Cc2ccc(OCC(F)(F)F)cc2)o1)S(C)(=O)=O` [Example 24, (3R)-3-amino-8-fluoro-7-[5-(1-methyl-1-methylsulfonyl-ethyl)-1,3,4-oxadiazol-2-yl]-1,1-dioxo-5-[[4-(2,2,2-trifluoroethoxy)phenyl]methyl]-2,3-dihydro-1λ6,5-benzothiazepin-4-one], the maximal response (Emax) was determined as 24% and the EC50 came to 1.05 µM.
The matching figures for `CC(C)(c1nnc(-c2cc3c(cc2F)S(=O)(=O)C[C@H](N)C(=O)N3Cc2ccc(OC(F)(F)C(F)F)cc2)o1)S(C)(=O)=O` [Example 26, (3R)-3-amino-8-fluoro-7-[5-(1-methyl-1-methylsulfonyl-ethyl)-1,3,4-oxadiazol-2-yl]-1,1-dioxo-5-[[4-(1,1,2,2-tetrafluoroethoxy)phenyl]methyl]-2,3-dihydro-1λ6,5-benzothiazepin-4-one]: 159% and 0.545 µM.
As to `CC(C)(c1nnc(-c2cc3c(cc2F)S(=O)(=O)C[C@H](N)C(=O)N3Cc2ccc(Oc3ccccc3)cc2)o1)S(C)(=O)=O` [Example 27, (3R)-3-amino-8-fluoro-7-[5-(1-methyl-1-methylsulfonyl-ethyl)-1,3,4-oxadiazol-2-yl]-1,1-dioxo-5-[(4-phenoxyphenyl)methyl]-2,3-dihydro-1λ6,5-benzothiazepin-4-one], the Emax came out at 215% and the EC50 stood at 2.6 µM.
As for `COc1ccc(-c2ccc(CN3C(=O)[C@@H](N)CS(=O)(=O)c4cc(F)c(-c5nnc(C(C)(C)S(C)(=O)=O)o5)cc43)cc2)cc1` [Example 29, (3R)-3-amino-8-fluoro-5-[[4-(4-methoxyphenyl)phenyl]methyl]-7-[5-(1-methyl-1-methylsulfonyl-ethyl)-1,3,4-oxadiazol-2-yl]-1,1-dioxo-2,3-dihydro-1λ6,5-benzothiazepin-4-one], the Emax was 284% and the concentration for a half-maximal effect (EC50) worked out at 0.431 µM.
Consider `CC(C)(c1nc(-c2cc3c(cc2F)S(=O)(=O)C[C@H](N)C(=O)N3Cc2ccc(Oc3ccccc3)cc2)no1)S(C)(=O)=O` [Example 30, (3R)-3-amino-8-fluoro-7-[5-(1-methyl-1-methylsulfonyl-ethyl)-1,2,4-oxadiazol-3-yl]-1,1-dioxo-5-[(4-phenoxyphenyl)methyl]-2,3-dihydro-1λ6,5-benzothiazepin-4-one], for which the Emax was determined as 265% and the EC50 was determined as 0.485 µM.
In the case of `Cc1cccc(Oc2ccc(CN3C(=O)[C@@H](N)CS(=O)(=O)c4ccc(-c5nnc(C(C)(C)S(C)(=O)=O)o5)cc43)cc2)c1` [Example 31], the Emax turned out to be 176% and the EC50 was determined as 0.745 µM.
As for `CC(C)(c1nnc(-c2ccc3c(c2)N(Cc2ccc(Oc4cccc(Cl)c4Cl)cc2)C(=O)[C@@H](N)CS3(=O)=O)o1)S(C)(=O)=O` [Example 32, (3R)-3-amino-5-[[4-(2,3-dichlorophenoxy)phenyl]methyl]-7-[5-(1-methyl-1-methylsulfonyl-ethyl)-1,3,4-oxadiazol-2-yl]-1,1-dioxo-2,3-dihydro-1λ6,5-benzothiazepin-4-one], the Emax came out at 82% and the concentration giving a half-maximal response (EC50) stood at 1.1 µM.
The matching figures for `CC(C)(c1nnc(-c2ccc3c(c2)N(Cc2ccc(Oc4cccc(F)c4)cc2)C(=O)[C@@H](N)CS3(=O)=O)o1)S(C)(=O)=O` [Example 33, (3R)-3-amino-5-[[4-(3-fluorophenoxy)phenyl]methyl]-7-[5-(1-methyl-1-methylsulfonyl-ethyl)-1,3,4-oxadiazol-2-yl]-1,1-dioxo-2,3-dihydro-1λ6,5-benzothiazepin-4-one]: 58% and 0.58 µM.
The matching figures for `CC(C)(c1nnc(-c2ccc3c(c2)N(Cc2ccc(Oc4cccc(Cl)c4)cc2)C(=O)[C@@H](N)CS3(=O)=O)o1)S(C)(=O)=O` [Example 34, (3R)-3-amino-5-[[4-(3-chlorophenoxy)phenyl]methyl]-7-[5-(1-methyl-1-methylsulfonyl-ethyl)-1,3,4-oxadiazol-2-yl]-1,1-dioxo-2,3-dihydro-1λ6,5-benzothiazepin-4-one]: 89% and 1 µM.
The matching figures for `CC(C)(c1nnc(-c2cc3c(cc2F)S(=O)(=O)C[C@H](N)C(=O)N3Cc2ccc(-c3ccc(C(F)(F)F)cc3)cc2)o1)S(C)(=O)=O` [Example 35, (3R)-3-amino-8-fluoro-7-[5-(1-methyl-1-methylsulfonyl-ethyl)-1,3,4-oxadiazol-2-yl]-1,1-dioxo-5-[[4-[4-(trifluoromethyl)phenyl]phenyl]methyl]-2,3-dihydro-1λ6,5-benzothiazepin-4-one]: 239% and 0.043 µM.
Turning to `CC(C)(c1nnc(-c2cc3c(cc2F)S(=O)(=O)C[C@H](N)C(=O)N3Cc2ccc(-c3ccc(C(F)(F)F)nc3)cc2)o1)S(C)(=O)=O` [Example 36], the Emax turned out to be 61% and the concentration for a half-maximal effect (EC50) came to 0.637 µM.
For `CC(C)(c1nnc(-c2ccc3c(c2)N(Cc2ccc(Oc4ccc(F)c(Cl)c4)cc2)C(=O)[C@@H](N)CS3(=O)=O)o1)S(C)(=O)=O` [Example 37, (3R)-3-amino-5-[[4-(3-chloro-4-fluoro-phenoxy)phenyl]methyl]-7-[5-(1-methyl-1-methylsulfonyl-ethyl)-1,3,4-oxadiazol-2-yl]-1,1-dioxo-2,3-dihydro-1λ6,5-benzothiazepin-4-one], the maximum response (Emax) came to 135% and the EC50 stood at 8.14 µM.
In the same order, the values of `CC(C)(c1nnc(-c2ccc3c(c2)N(Cc2ccc(Oc4cccc(C(F)(F)F)c4)cc2)C(=O)[C@@H](N)CS3(=O)=O)o1)S(C)(=O)=O` [Example 38] are 155% and 0.424 µM.
Take `CC(C)(c1nnc(-c2ccc3c(c2)N(Cc2ccc(Oc4cc(F)cc(C(F)(F)F)c4)cc2)C(=O)[C@@H](N)CS3(=O)=O)o1)S(C)(=O)=O` [Example 39]: the Emax is 106% and the EC50 came out at 0.813 µM.
